Experimental data as given in patent US20230028658A1, “EXPANDED DOSAGE REGIMENS FOR INTEGRIN INHIBITORS” (Pliant Therapeutics, Inc., priority 2021, published 2023).
Where two headings read alike, the source gives them in different places.

How the values were obtained:
[1] = Multiple dose pharmacokinetics (MAD), Example B14; assay type: in vivo; details: human, plasma, oral; for AUC(0-t): read-out: AUC0−24, ng × h/mL; for Tmax: median
From the text: Accordingly, a study was designed to assess the PK of Compound 5 after a single dose and following a 6-day course of doses, at levels exceeding the dosages used in preceding Examples B12 and B13. This study was designed to assess at these higher doses aspects of the single-dose and steady-state pharmacokinetics of Compound 5.
This study was a single-center, randomized, double-blind, ascending dose, placebo-controlled study in healthy participants. Each cohort included 10 participants (8 active, 2 placebo). Study participants received single ascending doses (SAD) of Compound 5 of 120, 160, 240, 320, 480, and 640 mg and multiple ascending doses (MAD) of Compound 5 of 80, 120, 160, 240, and 320 mg. Two cohorts of participants at 160 mg were studied in the MAD phase of the study.
Participants received 7 daily doses of Compound 5 80, 120, 160, 240, and 320 mg. A total of 60 participants were enrolled across the dosing groups, with 48 participants who received Compound 5 available for PK analyses. One participant discontinued study drug prior to completing all study procedures. […] Despite the substantially higher dosages, the PK parameters in the dosing groups were consistent with those observed at lower doses in Example B12. Following multiple doses of Compound 5 (oral solution) ranging from 80 to 320 mg QD, median plasma Compound 5 concentrations reached maximum levels after 3 to 4 hours. Geometric mean T1/2 remained relatively unchanged with increasing dose, ranging from 36 to 55 hours.

[2] = tested on: normal bronchial epithelial cell; experiment: normal bronchial epithelial cell adhesion to LAP (FIG. 3A); assay type: cell-based
lung Col1a1 expression = experiment: Precision cut lung slices of mice under chronic bleomycin exposure, Col1a1 expression (Example B9); assay type: cell-based, Mice (C57BL/6); details: chronic bleomycin PCLS, 7 days culture, normalized to DMSO; FIG. 5B
Experimental: Mice (C57BL/6) were administered 3 U/kg of bleomycin (Teva Pharmaceuticals; North Wales, Pa.) on Day 0 and 1 U/kg of bleomycin on days 14, 28, 42 and 56 via oropharyngeal aspiration while under anesthesia. At day 70, 14 days after the final bleomycin insult, precision cut lung slices were obtained. Following euthanization, 2% low gelling temp agarose was injected into the mouse lungs via the trachea. […] The lobes were then subjected to precision slicing to obtain samples for culture using a microtome (Compresstome VF-300-0Z, Precisionary; Greenville, N.C.). Individual slices were distributed in a multiwell culture plate and cultured for 7 days under control (DMSO) and test compound conditions. The viability of the slices over the course of culturing was confirmed by WST-1 assay of mitochondrial activity.
During the culture period, slices in the control group were treated with DMSO and slices in the test group were treated with a DMSO solution of one of: the selective antibody αvβ6 inhibitor 3G9; the αvβ1-selective small molecule inhibitor; a combination of the selective antibody αvβ6 inhibitor 3G9 and the αvβ1-selective small molecule inhibitor; compound 5; and the small molecule ALK5 inhibitor. The selective αvβ1 and αvβ6 integrin inhibitors were analyzed at ≥their respective IC90 concentrations for inhibition of TGF-beta activation. […]

[3] = First-in-human SAD and MAD pharmacokinetics (Example B12); assay type: in vivo; details: plasma, healthy subjects, oral solution, SAD 15-75 mg and MAD 10-40 mg, read-out: calculated half life
Experimental: Healthy human subjects (N=85) were selected for single ascending dose (SAD) and multiple ascending dose (MAD) first-in-human studies. A solution for oral administration was prepared, containing 10 mg/mL of compound 5 in a 50:50 mixture of ORA-SWEET® SF (PERRIGO®, Allegan, Mich.) and sterile water for irrigation. Sufficient solution was administered orally to the subjects to provide between 15 mg/dose and 75 mg/dose of compound 5 in the SAD study and between 10 mg/dose and 40 mg/dose of compound 5 in the MAD study. Concentrations of compound 5 were measured in the subjects by obtaining a sample of plasma from each subject at desired intervals, and subjecting the plasma to liquid chromatography-mass spectrometry-mass spectrometry (LC-MS/MS), with quantification using a calibration curve determined from a range of solutions at standardized concentrations. The lower limit of quantitation (LLOQ) of the assay was 1 ng/mL and the calibration curve range was 1 to 500 ng/mL.

COL1A1 expression = experiment: PCLS from IPF lung tissue, seven days, COL1A1 expression; assay type: cell-based, human; details: PCLS from a single IPF lung tissue sample, Compound 5 200 pM to 1 μM, significant reduction observed ≥2 nM, FIG. 6E
Experimental: PCLS from 5-7 idopathic pulmonary fibrosis (IPF) lung tissue samples were cultured for seven days with one of: DMSO; Compound 5 at 200 nM; nintedanib at 75 nM; pirfenidone at 50 μm; a combination of Compound 5 at 200 nM and nintedanib at 75 nM; a combination of Compound 5 at 200 nM and pirfenidone at 50 μm; or an Alk5 inhibitor at 1 μm. […] FIG. 6D is a bar graph showing relative expression of COL1A1 in precision cut lung slices (PCLS) from idopathic pulmonary fibrosis (IPF) lung tissue upon exposure to Compound 5, clinical standard of care compounds nintedanib (Nin) and pirfenidone (Pirf), and an ALK5 inhibitor, all versus DMSO control.
PCLS from a single IPF lung tissue sample were cultured for seven days with Compound 5 at concentrations of 200 pM, 2 nM, 60 nM, 200 nM, and 1 μM, along with 0.1% DMSO control and an Alk5 inhibitor at 1 μM. […] COL1A1 expression is also graphed for the PCLS in the presence of 0.1% DMSO control, and an Alk5 inhibitor at 1 μM.

[4] = 80 mg daily, Day 7, geometric mean
[5] = 120 mg daily, Day 7, geometric mean
[6] = 160 mg daily, Day 7, two cohorts pooled, geometric mean
[7] = 240 mg daily, Day 7, geometric mean
[8] = 320 mg daily, Day 7, geometric mean

Cmax [1, 4]: 1850 ng/mL
AUC(0-t) [1, 4]: 19200 ng·h/mL
half-life ([1]; 80 mg daily, Day 7, geometric mean, read-out: T1/2 (converted)): 36.1 h
Tmax ([1]; 80 mg daily, Day 7): 3.5 h
Cmax [1, 5]: 4040 ng/mL
AUC(0-t) [1, 5]: 49400 ng·h/mL
half-life ([1]; 120 mg daily, Day 7, geometric mean, read-out: T1/2 (converted)): 55.4 h
Tmax ([1]; 120 mg daily, Day 7): 4.03 h
Cmax [1, 6]: 3790 ng/mL
AUC(0-t) [1, 6]: 49400 ng·h/mL
half-life ([1]; 160 mg daily, Day 7, two cohorts pooled, geometric mean, read-out: T1/2 (converted)): 41.7 h
Tmax ([1]; 160 mg daily, Day 7, two cohorts pooled): 3 h
Cmax [1, 7]: 5140 ng/mL
AUC(0-t) [1, 7]: 63000 ng·h/mL
half-life ([1]; 240 mg daily, Day 7, geometric mean, read-out: T1/2 (converted)): 50.5 h
Tmax ([1]; 240 mg daily, Day 7): 3 h
Cmax [1, 8]: 5730 ng/mL
AUC(0-t) [1, 8]: 74500 ng·h/mL
half-life ([1]; 320 mg daily, Day 7, geometric mean, read-out: T1/2 (converted)): 46 h
Tmax ([1]; 320 mg daily, Day 7): 3.56 h
half-life ([1]; multiple doses 80 to 320 mg QD, read-out: Geometric mean T1/2): 36 to 55 h
half-life [3]: 35 to 55 h
SMILES: COCCN(CCCCc1ccc2c(n1)NCCC2)CC[C@H](Nc1ncnc2ccccc12)C(=O)O [Compound 5, (S)-4-((2-methoxyethyl) (4-(5,6,7,8-tetrahydro-1,8-naphthyridin-2-yl)butyl)amino)-2-(quinazolin-4-ylamino) butanoic acid]
normal bronchial epithelial cell adhesion to LAP [2]: substantially inhibited
lung Col1a1 expression (lung Col1a1 expression): decreased lung Col1a1 expression substantially
reduction in COL1A1 expression at ≥2 nM (COL1A1 expression): ≥ 47%
